{
  "source": "PubChem BioAssay (NCI)",
  "test_in_all_cases": "NCI tumour cell line growth inhibition, 48 h",
  "key": {"NCI-H226 lung": {"system": "NCI-H226 lung"}, "NCI-H23 lung": {"system": "NCI-H23 lung"}, "NCI-H460 lung": {"system": "NCI-H460 lung"}, "NCI-H522 lung": {"system": "NCI-H522 lung"}, "NCI/ADR-RES ovarian": {"system": "NCI/ADR-RES ovarian"}, "OVCAR-3 ovarian": {"system": "OVCAR-3 ovarian"}, "OVCAR-4 ovarian": {"system": "OVCAR-4 ovarian"}, "OVCAR-5 ovarian": {"system": "OVCAR-5 ovarian"}, "OVCAR-8 ovarian": {"system": "OVCAR-8 ovarian"}, "PC-3 prostate": {"system": "PC-3 prostate"}, "RPMI-8226 leukemia": {"system": "RPMI-8226 leukemia"}, "RXF 393 renal": {"system": "RXF 393 renal"}, "SF-268 CNS": {"system": "SF-268 CNS"}, "SF-295 CNS": {"system": "SF-295 CNS"}, "SF-539 CNS": {"system": "SF-539 CNS"}, "SK-MEL-2 melanoma": {"system": "SK-MEL-2 melanoma"}, "SK-MEL-28 melanoma": {"system": "SK-MEL-28 melanoma"}, "SK-MEL-5 melanoma": {"system": "SK-MEL-5 melanoma"}, "SK-OV-3 ovarian": {"system": "SK-OV-3 ovarian"}, "SN12C renal": {"system": "SN12C renal"}, "SNB-19 CNS": {"system": "SNB-19 CNS"}, "SNB-75 CNS": {"system": "SNB-75 CNS"}, "SR leukemia": {"system": "SR leukemia"}, "SW-620 colon": {"system": "SW-620 colon"}, "T-47D breast": {"system": "T-47D breast"}, "TK-10 renal": {"system": "TK-10 renal"}, "U251 CNS": {"system": "U251 CNS"}, "UACC-257 melanoma": {"system": "UACC-257 melanoma"}, "UACC-62 melanoma": {"system": "UACC-62 melanoma"}, "UO-31 renal": {"system": "UO-31 renal"}},
  "note": "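How tested: cells in 96-well plates exposed to compound for 48 hours at five concentrations. Here, GI50 denotes the concentration required for 50% inhibition of growth. Definition used: TGI = concentration required for complete inhibition of growth.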",
  "data": [
    {"compound": "CN(C)CCNC(=O)OCCCCOc1cc(O)c2c(=O)cc(-c3ccccc3)oc2c1", "values": [
      {"measurement": "TGI", "setting": "NCI-H226 lung", "value": 28.8, "unit": "µM"},
      {"measurement": "GI50", "setting": "NCI-H23 lung", "value": 7.23, "unit": "µM"},
      {"measurement": "TGI", "setting": "NCI-H23 lung", "value": 20.4, "unit": "µM"},
      {"measurement": "GI50", "setting": "NCI-H460 lung", "value": 3.01, "unit": "µM"},
      {"measurement": "TGI", "setting": "NCI-H460 lung", "value": 10.1, "unit": "µM"},
      {"measurement": "GI50", "setting": "NCI-H522 lung", "value": 3.68, "unit": "µM"},
      {"measurement": "TGI", "setting": "NCI-H522 lung", "value": 16, "unit": "µM"},
      {"measurement": "GI50", "setting": "NCI/ADR-RES ovarian", "value": 7.37, "unit": "µM"},
      {"measurement": "TGI", "setting": "NCI/ADR-RES ovarian", "value": 34.2, "unit": "µM"},
      {"measurement": "GI50", "setting": "OVCAR-3 ovarian", "value": 4.42, "unit": "µM"},
      {"measurement": "TGI", "setting": "OVCAR-3 ovarian", "value": 16.3, "unit": "µM"},
      {"measurement": "GI50", "setting": "OVCAR-4 ovarian", "value": 10.1, "unit": "µM"},
      {"measurement": "TGI", "setting": "OVCAR-4 ovarian", "value": 24.7, "unit": "µM"},
      {"measurement": "GI50", "setting": "OVCAR-5 ovarian", "value": 11.8, "unit": "µM"},
      {"measurement": "TGI", "setting": "OVCAR-5 ovarian", "value": 24.2, "unit": "µM"},
      {"measurement": "GI50", "setting": "OVCAR-8 ovarian", "value": 10, "unit": "µM"},
      {"measurement": "TGI", "setting": "OVCAR-8 ovarian", "value": 24.5, "unit": "µM"},
      {"measurement": "GI50", "setting": "PC-3 prostate", "value": 4.35, "unit": "µM"},
      {"measurement": "TGI", "setting": "PC-3 prostate", "value": 17.9, "unit": "µM"},
      {"measurement": "GI50", "setting": "RPMI-8226 leukemia", "value": 2.97, "unit": "µM"},
      {"measurement": "TGI", "setting": "RPMI-8226 leukemia", "value": 9.69, "unit": "µM"},
      {"measurement": "GI50", "setting": "RXF 393 renal", "value": 1.64, "unit": "µM"},
      {"measurement": "TGI", "setting": "RXF 393 renal", "value": 3.35, "unit": "µM"},
      {"measurement": "GI50", "setting": "SF-268 CNS", "value": 3.51, "unit": "µM"},
      {"measurement": "TGI", "setting": "SF-268 CNS", "value": 16.2, "unit": "µM"},
      {"measurement": "GI50", "setting": "SF-295 CNS", "value": 2.14, "unit": "µM"},
      {"measurement": "TGI", "setting": "SF-295 CNS", "value": 4.06, "unit": "µM"},
      {"measurement": "GI50", "setting": "SF-539 CNS", "value": 1.53, "unit": "µM"},
      {"measurement": "TGI", "setting": "SF-539 CNS", "value": 2.93, "unit": "µM"},
      {"measurement": "GI50", "setting": "SK-MEL-2 melanoma", "value": 2.88, "unit": "µM"},
      {"measurement": "TGI", "setting": "SK-MEL-2 melanoma", "value": 9.08, "unit": "µM"},
      {"measurement": "GI50", "setting": "SK-MEL-28 melanoma", "value": 1.62, "unit": "µM"},
      {"measurement": "TGI", "setting": "SK-MEL-28 melanoma", "value": 3.1, "unit": "µM"},
      {"measurement": "GI50", "setting": "SK-MEL-5 melanoma", "value": 1.65, "unit": "µM"},
      {"measurement": "TGI", "setting": "SK-MEL-5 melanoma", "value": 3.03, "unit": "µM"},
      {"measurement": "GI50", "setting": "SK-OV-3 ovarian", "value": 11.3, "unit": "µM"},
      {"measurement": "TGI", "setting": "SK-OV-3 ovarian", "value": 23.7, "unit": "µM"},
      {"measurement": "GI50", "setting": "SN12C renal", "value": 13.8, "unit": "µM"},
      {"measurement": "TGI", "setting": "SN12C renal", "value": 27.4, "unit": "µM"},
      {"measurement": "GI50", "setting": "SNB-19 CNS", "value": 6.09, "unit": "µM"},
      {"measurement": "TGI", "setting": "SNB-19 CNS", "value": 20.3, "unit": "µM"},
      {"measurement": "GI50", "setting": "SNB-75 CNS", "value": 11, "unit": "µM"},
      {"measurement": "TGI", "setting": "SNB-75 CNS", "value": 24, "unit": "µM"},
      {"measurement": "GI50", "setting": "SR leukemia", "value": 1.95, "unit": "µM"},
      {"measurement": "TGI", "setting": "SR leukemia", "value": 4.16, "unit": "µM"},
      {"measurement": "GI50", "setting": "SW-620 colon", "value": 2.03, "unit": "µM"},
      {"measurement": "TGI", "setting": "SW-620 colon", "value": 4.49, "unit": "µM"},
      {"measurement": "GI50", "setting": "T-47D breast", "value": 1.88, "unit": "µM"},
      {"measurement": "TGI", "setting": "T-47D breast", "value": 4.23, "unit": "µM"},
      {"measurement": "GI50", "setting": "TK-10 renal", "value": 18.5, "unit": "µM"},
      {"measurement": "TGI", "setting": "TK-10 renal", "value": 33.2, "unit": "µM"},
      {"measurement": "GI50", "setting": "U251 CNS", "value": 2.31, "unit": "µM"},
      {"measurement": "TGI", "setting": "U251 CNS", "value": 6.74, "unit": "µM"},
      {"measurement": "GI50", "setting": "UACC-257 melanoma", "value": 1.89, "unit": "µM"},
      {"measurement": "TGI", "setting": "UACC-257 melanoma", "value": 3.61, "unit": "µM"},
      {"measurement": "GI50", "setting": "UACC-62 melanoma", "value": 1.78, "unit": "µM"},
      {"measurement": "TGI", "setting": "UACC-62 melanoma", "value": 3.43, "unit": "µM"},
      {"measurement": "GI50", "setting": "UO-31 renal", "value": 4.56, "unit": "µM"},
      {"measurement": "TGI", "setting": "UO-31 renal", "value": 16.9, "unit": "µM"}
    ]}
  ]
}
